# In the supplement of paper PMC10307832:
# Assays:
# Assay in all cases: relative viability (nuclei count vs DMSO), 5 days (fraction); higher = more cells survive
# Doxorubicin + Vorinostat = compound: COc1cccc2c1C(=O)c1c(O)c3c(c(O)c1C2=O)C[C@@](O)(C(=O)CO)C[C@@H]3O[C@H]1C[C@H](N)[C@H](O)[C@H](C)O1 [Doxorubicin] + O=C(CCCCCCC(=O)Nc1ccccc1)NO [Vorinostat] (partner 1 µM)
# Procedure, shortened: (§1)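 After 5 days of treatment, lung cancer cells in 1536-well plates were fixed and stained in a single step (final 0.05% Triton X-100, 1% formaldehyde, 1 ug/ml Hoechst) and their nuclei counted on 4× images. Treatment had been applied by pin tool the day after seeding as one drug alone or as a fixed anchor-drug dose with five library-drug doses (not always all listed) in √10 steps. Relative viability is the nuclei count of treated wells divided by that of vehicle wells, and values are medians of duplicate plates.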
# BAY61-3606 + Crizotinib = compound: COC1=C(C=C(C=C1)C2=CC3=NC=CN3C(=N2)NC4=C(C=CC=N4)C(=O)N)OC [BAY61-3606] + C[C@@H](Oc1cc(-c2cnn(C3CCNCC3)c2)cnc1N)c1c(Cl)ccc(F)c1Cl [Crizotinib] (partner 1 µM)
# Procedure, shortened: as §1
# Doxorubicin + Tozasertib = compound: COc1cccc2c1C(=O)c1c(O)c3c(c(O)c1C2=O)C[C@@](O)(C(=O)CO)C[C@@H]3O[C@H]1C[C@H](N)[C@H](O)[C@H](C)O1 [Doxorubicin] + Cc1cc(Nc2cc(N3CCN(C)CC3)nc(Sc3ccc(NC(=O)C4CC4)cc3)n2)n[nH]1 [Tozasertib] (partner 0.1 µM)
# Procedure, shortened: as §1
# BAY61-3606 + Decitabine = compound: COC1=C(C=C(C=C1)C2=CC3=NC=CN3C(=N2)NC4=C(C=CC=N4)C(=O)N)OC [BAY61-3606] + Nc1ncn([C@H]2C[C@H](O)[C@@H](CO)O2)c(=O)n1 [Decitabine] (partner 2 µM)
# Procedure, shortened: as §1
Cell Line,relative viability (Doxorubicin + Vorinostat; first compound 0.001 µM),relative viability (Doxorubicin + Vorinostat; first compound 0.003162 µM),relative viability (Doxorubicin + Vorinostat; first compound 0.01 µM),relative viability (Doxorubicin + Vorinostat; first compound 0.03162 µM),relative viability (Doxorubicin + Vorinostat; first compound 0.1 µM),relative viability (BAY61-3606 + Crizotinib; first compound 0.02 µM),relative viability (BAY61-3606 + Crizotinib; first compound 0.06325 µM),relative viability (BAY61-3606 + Crizotinib; first compound 0.2 µM),relative viability (BAY61-3606 + Crizotinib; first compound 0.6325 µM),relative viability (BAY61-3606 + Crizotinib; first compound 2 µM),relative viability (Doxorubicin + Tozasertib; first compound 0.003162 µM),relative viability (Doxorubicin + Tozasertib; first compound 0.01 µM),relative viability (Doxorubicin + Tozasertib; first compound 0.03162 µM),relative viability (Doxorubicin + Tozasertib; first compound 0.1 µM),relative viability (BAY61-3606 + Decitabine; first compound 0.02 µM),relative viability (BAY61-3606 + Decitabine; first compound 0.06325 µM),relative viability (BAY61-3606 + Decitabine; first compound 0.2 µM),relative viability (BAY61-3606 + Decitabine; first compound 0.6325 µM),relative viability (BAY61-3606 + Decitabine; first compound 2 µM),relative viability (Doxorubicin + Tozasertib; first compound 0.001 µM)
HCC-366,0.279,0.403,0.306,0.211,0.122,0.506,0.495,0.566,0.461,0.162,0.156,0.179,0.106,0.158,0.379,0.433,0.396,0.354,0.296,–
BEN,0.617,0.612,0.467,0.58,0.502,0.88,0.748,1.1,1.06,0.84,0.564,0.576,0.469,0.54,0.798,0.688,0.77,0.769,0.755,0.587
LCLC-103H,0.775,0.823,0.779,0.811,0.902,1.07,0.997,1.02,1.08,1.02,0.411,0.465,0.414,0.529,0.773,0.707,0.75,0.748,0.773,0.531
NCI-H441,0.87,0.962,0.75,0.279,0.372,0.668,0.788,0.833,0.771,0.414,0.612,0.511,0.249,0.245,0.249,0.223,0.242,0.256,0.253,–
ChaGo-K-1,0.763,0.76,0.721,0.698,0.574,1.09,0.832,1.06,1.14,1.05,0.199,0.222,0.208,0.226,0.53,0.543,0.479,0.51,0.531,0.229
COR-L 105,0.707,0.788,0.773,0.559,0.434,0.762,0.569,0.674,0.541,0.421,0.368,0.443,0.334,0.344,0.764,0.672,0.543,0.63,0.475,0.424
NCI-H1993,0.0284,0.67,0.851,0.509,0.462,0.949,0.87,0.807,0.827,0.636,0.657,0.555,0.58,0.591,0.632,0.622,0.542,0.536,0.601,0.593
NCI-H2009,0.682,0.77,0.738,0.534,0.329,1.06,1.12,1.01,1.08,0.921,0.745,0.678,0.524,0.284,0.368,0.359,0.352,0.365,0.415,0.748
NCI-H23,0.551,0.808,0.654,0.464,0.363,0.53,0.283,0.505,0.486,0.264,0.452,0.362,0.389,0.397,0.393,0.329,0.363,0.346,0.383,–
NCI-H2405,1.2,1.17,0.971,0.804,0.323,0.856,0.787,0.764,0.849,0.661,0.759,0.74,0.693,0.546,0.798,0.78,0.703,0.779,0.643,0.847
HCC-44,1.1,1.15,1.1,1.12,1.12,0.749,0.829,0.777,0.907,0.823,0.882,0.797,0.284,0.321,0.939,0.926,0.931,0.911,0.957,0.767
EMC-BAC-2,0.872,0.311,0.241,0.22,0.114,0.775,0.696,0.755,0.817,0.573,0.26,0.308,0.25,0.216,1.07,1.06,1.04,1.19,0.986,0.321
NCI-H322M,1.01,0.836,0.85,0.769,0.57,0.901,0.756,0.853,0.842,1.01,0.506,0.518,0.437,0.383,0.747,0.666,0.662,0.706,0.657,0.518
SK-MES-1,1.04,1.15,0.996,0.251,0.233,1.01,0.971,0.962,0.966,0.876,0.867,0.583,0.211,0.162,0.37,0.342,0.377,0.382,0.348,0.856
NCI-H2170,0.737,0.939,0.872,0.702,0.881,1.27,1.27,1.19,1.16,0.87,0.711,0.651,0.581,0.701,0.449,0.529,0.485,0.462,0.429,0.741
EPLC-272H,0.364,0.501,0.381,0.345,0.345,1.03,0.762,0.89,0.87,0.811,0.401,0.238,0.26,0.506,0.409,0.403,0.369,0.396,0.33,0.423
